Test results from US20240343717A1, “MICROBIOCIDAL PYRAZOLE DERIVATIVES” (SYNGENTA CROP PROTECTION AG, priority 2021, published 2024).

Legend:
[1] = system: Mycosphaerella graminicola (Septoria tritici); assay: Mycosphaerella graminicola (Septoria tritici) / liquid culture (Septoria blotch); format: cell-based; settings: Zymoseptoria tritici, growth inhibition photometrically 4-5 days after application, read-out: control of Mycosphaerella graminicola
Experimental: Example B16: Mycosphaerella graminicola (Septoria tritici)/Liquid Culture (Septoria Blotch) Conidia of the fungus from cryogenic storage are directly mixed into nutrient broth (PDB potato dextrose broth). After placing a (DMSO) solution of test compound into a microtiter plate (96-well format), the nutrient broth containing the fungal spores is added. The test plates are incubated at 24° C. and the inhibition of growth is determined photometrically 4-5 days after application.

[2] = system: Monographella nivalis (Microdochium nivale); assay: Monographella nivalis (Microdochium nivale) / liquid culture (foot rot cereals); format: cell-based; settings: growth inhibition photometrically 4-5 days after application, read-out: control of Monographella nivalis
Experimental: Example B9: Monographella nivalis (Microdochium nivale)/Liquid Culture (Foot Rot Cereals) Conidia of the fungus from cryogenic storage are directly mixed into nutrient broth (PDB potato dextrose broth). After placing a (DMSO) solution of test compound into a microtiter plate (96-well format), the nutrient broth containing the fungal spores is added. The test plates are incubated at 24° C. and the inhibition of growth is determined photometrically 4-5 days after application.

[3] = system: Mycosphaerella arachidis (Cercospora arachidicola); assay: Mycosphaerella arachidis (Cercospora arachidicola) / liquid culture (early leaf spot); format: cell-based; settings: growth inhibition photometrically 4-5 days after application, read-out: control of Mycosphaerella arachidis
Experimental: Example B10: Mycosphaerella arachidis (Cercospora arachidicola)/Liquid Culture (Early Leaf Spot) Conidia of the fungus from cryogenic storage are directly mixed into nutrient broth (PDB potato dextrose broth). After placing a (DMSO) solution of test compound into a microtiter plate (96-well format), the nutrient broth containing the fungal spores is added. The test plates are incubated at 24° C. and the inhibition of growth is determined photometrically 4-5 days after application.

[4] = system: Botryotinia fuckeliana (Botrytis cinerea); assay: Botryotinia fuckeliana (Botrytis cinerea) / liquid culture (gray mould); format: cell-based; settings: growth inhibition photometrically 3-4 days after application, read-out: control of Botryotinia fuckeliana
Experimental: Example B2: Botryotinia fuckeliana (Botrytis cinerea)/Liquid Culture (Gray Mould) Conidia of the fungus from cryogenic storage are directly mixed into nutrient broth (Vogels broth). After placing a (DMSO) solution of test compound into a microtiter plate (96-well format), the nutrient broth containing the fungal spores is added. The test plates are incubated at 24° C. and the inhibition of growth is determined photometrically 3-4 days after application.

[5] = system: Glomerella lagenarium (Colletotrichum lagenarium); assay: Glomerella lagenarium (Colletotrichum lagenarium) / liquid culture (anthracnose); format: cell-based; settings: Colletotrichum orbiculare, growth inhibition photometrically 3-4 days after application, read-out: control of Glomerella lagenarium
Experimental: Example B3: Glomerella lagenarium (Colletotrichum lagenarium)/Liquid Culture (Anthracnose) Conidia of the fungus from cryogenic storage are directly mixed into nutrient broth (PDB potato dextrose broth). After placing a (DMSO) solution of test compound into a microtiter plate (96-well format), the nutrient broth containing the fungal spores is added. The test plates are incubated at 24° C. and the inhibition of growth is measured photometrically 3-4 days after application.

Pyrenophora teres = Pyrenophora teres / barley / leaf disc preventative (net blotch); format: in vivo; settings: foliar, barley leaf segments, inoculated 2 days after application
Experimental: Example B14: Pyrenophora teres/Barley/Leaf Disc Preventative (Net Blotch) Barley leaf segments cv. Hasso are placed on agar in a multiwell plate (24-well format) and sprayed with the formulated test compound diluted in water. The leaf segments are inoculated with a spore suspension of the fungus 2 days after application. The inoculated leaf segments are incubated at 20° C. and 65% rh under a light regime of 12 h light/12 h darkness in a climate cabinet and the activity of a compound is assessed as disease control compared to untreated when an appropriate level of disease damage appears in untreated check leaf segments (5-7 days after application).

Alternaria solani = Alternaria solani / tomato / leaf disc (early blight); format: in vivo; settings: foliar, tomato leaf disks, sprayed 2 days before inoculation, compared to untreated control
Experimental: Example B1: Alternaria solani/Tomato/Leaf Disc (Early Blight) Tomato leaf disks cv. Baby are placed on agar in multiwell plates (24-well format) and sprayed with the formulated test compound diluted in water. The leaf disks are inoculated with a spore suspension of the fungus 2 days after application. The inoculated leaf disks are incubated at 23° C./21° C.

Cn1cc(C(C)(CNC(=O)c2cc(C3CC3)on2)c2cccc(Cl)n2)cn1 (stereo not shown) [Compound P-78, N-[2-(6-chloro-2-pyridyl)-2-(1-methylpyrazol-4-yl)propyl]-5-cyclopropyl-isoxazole-3-carboxamide]
≥ 80%: inhibition of growth at 20 ppm [1] | inhibition of growth at 20 ppm [2] | inhibition of growth at 20 ppm [3]

C=C(C)COc1cc(Cl)nc(C(C)(CNC(=O)c2cc(-c3ccc(F)cc3F)on2)c2cnn(C)c2)c1 (stereo not shown) [Compound P-68, N-[2-[6-chloro-4-(2-methylallyloxy)-2-pyridyl]-2-(1-methylpyrazol-4-yl)propyl]-5-(2,4-difluorophenyl) isoxazole-3-carboxamide]
≥ 80%: inhibition of growth at 20 ppm [4] | inhibition of growth at 20 ppm [5] | inhibition of growth at 20 ppm [1] | inhibition of growth at 20 ppm [2] | inhibition of growth at 20 ppm [3]

CNC(=O)c1ccc(C(C)(CNC(=O)c2cc(-c3ccc(F)cc3F)on2)c2cnn(C)c2)nc1 (stereo not shown) [Compound P-56, 5-(2,4-difluorophenyl)-N-[2-[5-(methylcarbamoyl)-2-pyridyl]-2-(1-methylpyrazol-4-yl)propyl]isoxazole-3-carboxamide]
≥ 80%: pest or weed control at 200 ppm (Pyrenophora teres)

Cn1cc(C(C)(CNC(=O)c2cc(-c3ccc(F)cc3F)on2)c2cccc(N)n2)cn1 (stereo not shown) [Compound P-50, N-[2-(6-amino-2-pyridyl)-2-(1-methylpyrazol-4-yl)propyl]-5-(2,4-difluorophenyl) isoxazole-3-carboxamide]
≥ 80%: inhibition of growth at 20 ppm [4] | inhibition of growth at 20 ppm [5] | pest or weed control at 200 ppm (Pyrenophora teres) | inhibition of growth at 20 ppm [1] | inhibition of growth at 20 ppm [2] | inhibition of growth at 20 ppm [3]

COc1ccc(C(C)(CNC(=O)c2cc(-c3ccc(F)cc3F)on2)c2cnn(C)c2)nn1 (stereo not shown) [Compound P-105, 5-(2,4-difluorophenyl)-N-[2-(6-methoxypyridazin-3-yl)-2-(1-methylpyrazol-4-yl)propyl] isoxazole-3-carboxamide]
≥ 80%: pest or weed control at 200 ppm (Pyrenophora teres) | pest or weed control at 200 ppm (Alternaria solani)

COC(=O)c1ccc(C(C)(CNC(=O)c2cc(-c3ccc(F)cc3F)on2)c2cnn(C)c2)nc1 (stereo not shown) [Compound P-55, methyl 6-[2-[[5-(2,4-difluorophenyl)isoxazole-3-carbonyl]amino]-1-methyl-1-(1-methylpyrazol-4-yl)ethyl]pyridine-3-carboxylate]
≥ 80%: inhibition of growth at 20 ppm [4] | inhibition of growth at 20 ppm [5] | inhibition of growth at 20 ppm [1] | inhibition of growth at 20 ppm [2]

Cn1cc(C(C)(CNC(=O)c2cc(-c3ccc(F)cc3F)on2)c2ncccc2Cl)cn1 (stereo not shown) [Compound P-2, N-[2-(3-chloro-2-pyridyl)-2-(1-methylpyrazol-4-yl)propyl]-5-(2,4-difluorophenyl) isoxazole-3-carboxamide]
≥ 80%: inhibition of growth at 20 ppm [4] | pest or weed control at 200 ppm (Pyrenophora teres) | inhibition of growth at 20 ppm [1] | inhibition of growth at 20 ppm [2]

Cn1cc(C(C)(CNC(=O)c2cc(-c3ccc(F)cc3F)on2)c2ccc(Cl)cn2)cn1 (stereo not shown) [Compound P-20, N-[2-(5-chloro-2-pyridyl)-2-(1-methylpyrazol-4-yl)propyl]-5-(2,4-difluorophenyl) isoxazole-3-carboxamide]
≥ 80%: inhibition of growth at 20 ppm [5] | pest or weed control at 200 ppm (Pyrenophora teres) | inhibition of growth at 20 ppm [1] | inhibition of growth at 20 ppm [2]

Cn1cc(C(C)(CNC(=O)c2cc(-c3ccc(F)cc3F)on2)c2ncccc2Br)cn1 (stereo not shown) [Compound P-53, N-[2-(3-bromo-2-pyridyl)-2-(1-methylpyrazol-4-yl)propyl]-5-(2,4-difluorophenyl) isoxazole-3-carboxamide]
≥ 80%: pest or weed control at 200 ppm (Pyrenophora teres) | inhibition of growth at 20 ppm [2]

Cn1cc(C(C)(CNC(=O)c2nnc(-c3ccc(F)cc3F)s2)c2ccc(Cl)cn2)cn1 (stereo not shown) [Compound P-17, N-[2-(5-chloro-2-pyridyl)-2-(1-methylpyrazol-4-yl)propyl]-5-(2,4-difluorophenyl)-1,3,4-thiadiazole-2-carboxamide]
≥ 80%: inhibition of growth at 20 ppm [5] | inhibition of growth at 20 ppm [1] | inhibition of growth at 20 ppm [2] | inhibition of growth at 20 ppm [3]

CCS(=O)(=O)c1cccc(C(C)(CNC(=O)c2nnc(-c3ccc(F)cc3F)s2)c2cnn(C)c2)n1 (stereo not shown) [Compound P-3, 5-(2,4-difluorophenyl)-N-[2-(6-ethylsulfonyl-2-pyridyl)-2-(1-methylpyrazol-4-yl)propyl]-1,3,4-thiadiazole-2-carboxamide]
≥ 80%: pest or weed control at 200 ppm (Pyrenophora teres)

CNC(=O)c1cccc(C(C)(CNC(=O)c2cc(-c3ccc(F)cc3F)on2)c2cnn(C)c2)n1 (stereo not shown) [Compound P-45, 5-(2,4-difluorophenyl)-N-[2-[6-(methylcarbamoyl)-2-pyridyl]-2-(1-methylpyrazol-4-lyl)propyl]isoxazole-3-carboxamide]
≥ 80%: pest or weed control at 200 ppm (Pyrenophora teres)

CC(=O)Nc1cccc(C(C)(CNC(=O)c2cc(-c3ccc(F)cc3F)on2)c2cnn(C)c2)n1 (stereo not shown) [Compound P-52, N-[2-(6-acetamido-2-pyridyl)-2-(1-methylpyrazol-4-yl)propyl]-5-(2,4-difluorophenyl) isoxazole-3-carboxamide]
≥ 80%: pest or weed control at 200 ppm (Pyrenophora teres)

CC(=O)c1ccc(C(C)(CNC(=O)c2cc(-c3ccc(F)cc3F)on2)c2cnn(C)c2)nc1 (stereo not shown) [Compound P-57, N-[2-(5-acetyl-2-pyridyl)-2-(1-methylpyrazol-4-yl)propyl]-5-(2,4-difluorophenyl) isoxazole-3-carboxamide]
≥ 80%: inhibition of growth at 20 ppm [5] | inhibition of growth at 20 ppm [1] | inhibition of growth at 20 ppm [2]

COc1ccnc(C(C)(CNC(=O)c2cc(-c3ccc(F)cc3F)on2)c2cnn(C)c2)c1 (stereo not shown) [Compound P-7, 5-(2,4-difluorophenyl)-N-[2-(4-methoxy-2-pyridyl)-2-(1-methylpyrazol-4-yl)propyl]isoxazole-3-carboxamide]
≥ 80%: inhibition of growth at 20 ppm [5] | pest or weed control at 200 ppm (Alternaria solani) | inhibition of growth at 20 ppm [1] | inhibition of growth at 20 ppm [2]

Cn1cc(C(C)(CNC(=O)c2cc(C3CCCCC3)on2)c2cccc(Cl)n2)cn1 (stereo not shown) [Compound P-79, N-[2-(6-chloro-2-pyridyl)-2-(1-methylpyrazol-4-yl)propyl]-5-cyclohexyl-isoxazole-3-carboxamide]
≥ 80%: inhibition of growth at 20 ppm [5] | pest or weed control at 200 ppm (Pyrenophora teres) | inhibition of growth at 20 ppm [1] | inhibition of growth at 20 ppm [2] | inhibition of growth at 20 ppm [3]

Cn1ncc(C(CNC(=O)c2cc(-c3ccc(F)cc3F)on2)c2cccc(C#N)n2)c1Cl (stereo not shown) [Compound P-117]
≥ 80%: inhibition of growth at 20 ppm [4] | inhibition of growth at 20 ppm [5] | inhibition of growth at 20 ppm [1] | inhibition of growth at 20 ppm [2] | inhibition of growth at 20 ppm [3]
